Results published in US20200262877A1, “ION CHANNEL-BINDING PEPTIDES AND METHODS OF USE THEREOF” (priority 2017, published 2020).

Test system: panel of 20 ion channels
Type: cell-based
Details: potassium channels of the panel; 0.2 or 20 μM; FIG. 2
Protocol: This example describes a method for assaying ion channel activity in cells.
Peptides were screened in duplicate at final concentrations of 20 μM and 200 nM, as determined by amino acid analysis, and diluted into HEPES buffered physiological saline (HBPS). HEK293 or CHO cells from the American Type Culture Collection (ATCC) were transfected with the appropriate ion channel before use. HEK293 cells were grown in Dulbecco's Modified Eagle Medium/Nutrient Mixture F-12, and CHO cells were cultured in Ham's F-12 media. All cultures were supplemented with 10% fetal bovine serum, 100 U/ml penicillin G, 100 μg/ml streptomycin sulfate, and the appropriate selection antibiotics. Prior to use, cells were washed twice with Hank's Balanced Salt Solution, and treated with Accutase cell detachment solution (Sigma-Aldrich). Cells were then washed. Peptides and controls were incubated with cells for at least five minutes.
Percent inhibition was defined as: (1-(Ipeptide/Icontrol))×100%).
Percent values were calculated using the following formula: % activation=(IPeptide/Icontrol)×100%, where IPeptide is the current produced by co-application a peptide with agonist, and Icontrol refers to the current produced by stimulation in control. Control used for each ion channel is the reference compound matched to a particular channel, as illustrated in TABLE 10 below.

Sequence	Activity on potassium channels
GSQIDTNVKCSGSSKCVKICIDRYNTRGAKCINGRCTCYP [SEQ ID NO: 20]	showed activity on various subsets of potassium channels
GSVVIGQRCYRSPDCYSACKKLVGKATGKCTNGRCDC [SEQ ID NO: 26]	showed activity on various subsets of potassium channels
